In BindingDB's records for doi:10.7270/Q2K935WV (Nmmlsc, 2008):

Target: Isoform Bcl-X(L) of Bcl-2-like protein 1 (Bcl-xL) (Homo sapiens, UniProt Q07817)
Experiment: Bim-Bcl-XL interaction inhibitors, potency, dose response, biochemical, multiplexed, bead flow cytometry, human Bcl-XL (AID 1322)
Details: inactive by the depositor's call; pH 7.4; 4 °C

Sequence of Isoform Bcl-X(L) of Bcl-2-like protein 1 (Bcl-xL) (Q07817 whole entry G70A, canonical isoform): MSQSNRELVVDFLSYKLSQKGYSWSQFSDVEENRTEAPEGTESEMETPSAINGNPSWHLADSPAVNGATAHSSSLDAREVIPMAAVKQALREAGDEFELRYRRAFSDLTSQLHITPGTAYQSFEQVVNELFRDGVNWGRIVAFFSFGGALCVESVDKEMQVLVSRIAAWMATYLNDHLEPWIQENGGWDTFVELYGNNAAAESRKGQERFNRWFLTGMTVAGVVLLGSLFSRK

SMILES	EC50 [µM]
O=C1/C(=C\c2ccc(-c3ccccc3Cl)o2)SC(=S)N1CC1CCCO1 (stereo unspecified) [(5E)-5-[[5-(2-chlorophenyl)furan-2-yl]methylidene]-3-(oxolan-2-ylmethyl)-2-sulfanylidene-1,3-thiazolidin-4-one]	1.55
CCN(CC)c1ccc(-c2nn3c(-c4cccnc4)nnc3s2)cc1	7.92
CCOC(=O)c1c(O)nc2ccc(Cl)c3c2c1-c1ccccc1C3=O [MLS000704595]	5.86

Same assay, conditions: pH 7.4; 4 °C

SMILES	EC50 [µM]
COc1cccc(CN=Nc2nn3cnnc3c3ccccc23)c1 [N-[1-(3-Methoxy-phenyl)-meth-(E)-ylidene]-N'-[1,2,4]triazolo[3,4-a]phthalazin-6-yl-hydrazine]	2.04
O=C1c2ccccc2-c2onc3ccc(NCCCn4ccnc4)c1c23 [SMR000044769]	1.14
CCC(/C=C1\Sc2ccc(OC)cc2N1CCO)=C\c1sc2ccc(OC)cc2[n+]1CCO	19.2
